From ChEMBL document CHEMBL5104137, “The overview of Mitogen-activated extracellular signal-regulated kinase (MEK)-based dual inhibitor in the treatment of cancers” (Bioorg Med Chem, 2022)
One block for each compound: values may come before it.

Legend:
[1] = Inhibition of human MEK using 5-Fl-SGQLIDSMANSFV-NH2 peptide as substrate by FRET assay
[2] = biological target: Serine/threonine-protein kinase B-raf (Homo sapiens, UniProt P15056); assay: Inhibition of wild type human BRAF using 5-Fl-SGQLIDSMANSFV-NH2 peptide as substrate by FRET assay
[3] = biological target: Serine/threonine-protein kinase B-raf (Homo sapiens, UniProt P15056, V600E); assay: Inhibition of human BRAF V600E mutant using 5-Fl-SGQLIDSMANSFV-NH2 peptide as substrate by FRET assay
[4] = tested on: SK-MEL-2; assay: Antiproliferative activity against human SK-MEL-2 cells harboring NRAS Q61R mutant assessed as cell growth inhibition measured after 72 hrs by WST-8 assay; format: functional, cell-based; settings: SK-MEL-2, 72 h
[5] = tested on: SK-MEL-28; assay: Antiproliferative activity against human SK-MEL-28 cells harboring BRAF V600E mutant assessed as cell growth inhibition measured after 72 hrs by WST-8 assay; format: functional, cell-based; settings: SK-MEL-28, 72 h
[6] = tested on: MIA PaCa-2; assay: Antiproliferative activity against human MIA PaCa-2 cells harboring […] mutant assessed as cell growth inhibition measured after 72 hrs by WST-8 assay; format: functional, cell-based; settings: MIA PaCa-2, 72 h
[7] = tested on: SW480; assay: Antiproliferative activity against human SW480 cells harboring […] mutant assessed as cell growth inhibition measured after 72 hrs by WST-8 assay; format: functional, cell-based; settings: SW480, 72 h
[8] = tested on: HCT-116; assay: Antiproliferative activity against human HCT-116 cells harboring […] mutant assessed as cell growth inhibition measured after 72 hrs by WST-8 assay; format: functional, cell-based; settings: HCT-116, 72 h
[9] = Antiproliferative activity against human CT-TC cells harboring HRAS Q61K mutant assessed as cell growth inhibition measured after 72 hrs by WST-8 assay; format: functional, cell-based
[10] = Inhibition of Xenopus laevis Aurora Kinase C
[11] = Cmax in BomTac:NMRI-Foxn1 mouse xenografted with human Calu6 cells harboring KRAS Q61K mutant at 70 mg/kg per week, po via gavage by electrochemo-luminescence analysis; format: ADME, organism-based, Calu-6; set-up: dose 70 mg/kg, route po; settings: in vivo
[12] = biological target: Aurora kinase B-B (Xenopus laevis, UniProt Q6GPL3); assay: Inhibition of Xenopus laevis Aurora Kinase B
[13] = Cmax in BomTac:NMRI-Foxn1 mouse xenografted with human Calu6 cells harboring KRAS Q61K mutant at 10 mg/kg per day, po via gavage by electrochemo-luminescence analysis; format: ADME, organism-based, Calu-6; set-up: dose 10 mg/kg, route po; settings: in vivo
[14] = Cmax in BomTac:NMRI-Foxn1 mouse xenografted with human Calu6 cells harboring KRAS Q61K mutant at 70 mg/kg per week, po via gavage measured after 24 hrs by electrochemo-luminescence analysis; format: ADME, organism-based, Calu-6; set-up: dose 70 mg/kg, time 24 hrs, route po; settings: in vivo
[15] = Cmax in BomTac:NMRI-Foxn1 mouse xenografted with human Calu6 cells harboring KRAS Q61K mutant at 10 mg/kg per day, po via gavage measured after 24 hrs by electrochemo-luminescence analysis; format: ADME, organism-based, Calu-6; set-up: time 24 hrs, dose 10 mg/kg, route po; settings: in vivo
[16] = tested on: MOLM-13; assay: Antiproliferative activity against human MOLM13 cells harboring FLT3-ITD mutant assessed as cell growth inhibition by Trypan blue staining based assay; format: functional
[17] = tested on: MV4-11; assay: Antiproliferative activity against human MV4-11 cells harboring FLT3-ITD mutant assessed as cell growth inhibition by trypan blue staining based assay; format: functional
[18] = tested on: BaF3; assay: Antiproliferative activity against […] cells harboring D835Y mutant assessed as cell growth inhibition by trypan blue staining based assay; format: functional; settings: Mus musculus
[19] = tested on: BaF3; assay: Antiproliferative activity against […] cells harboring D835G mutant assessed as cell growth inhibition by trypan blue staining based assay; format: functional; settings: Mus musculus

Aurora kinase B-B, sequence (Q6GPL3 whole entry): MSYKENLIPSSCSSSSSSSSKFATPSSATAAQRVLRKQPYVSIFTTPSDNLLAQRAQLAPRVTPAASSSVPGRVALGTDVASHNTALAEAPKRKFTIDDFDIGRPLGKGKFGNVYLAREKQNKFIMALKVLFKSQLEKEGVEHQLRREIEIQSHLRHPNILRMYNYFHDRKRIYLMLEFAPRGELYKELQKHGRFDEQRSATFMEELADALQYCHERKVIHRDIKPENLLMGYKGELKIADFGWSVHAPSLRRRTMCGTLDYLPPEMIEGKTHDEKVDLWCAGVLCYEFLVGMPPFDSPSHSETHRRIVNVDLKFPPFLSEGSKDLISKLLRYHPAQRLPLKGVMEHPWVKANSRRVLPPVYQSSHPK
Serine/threonine-protein kinase B-raf (Homo sapiens, UniProt P15056, V600E), sequence (P15056 2-766 V600E limits assumed): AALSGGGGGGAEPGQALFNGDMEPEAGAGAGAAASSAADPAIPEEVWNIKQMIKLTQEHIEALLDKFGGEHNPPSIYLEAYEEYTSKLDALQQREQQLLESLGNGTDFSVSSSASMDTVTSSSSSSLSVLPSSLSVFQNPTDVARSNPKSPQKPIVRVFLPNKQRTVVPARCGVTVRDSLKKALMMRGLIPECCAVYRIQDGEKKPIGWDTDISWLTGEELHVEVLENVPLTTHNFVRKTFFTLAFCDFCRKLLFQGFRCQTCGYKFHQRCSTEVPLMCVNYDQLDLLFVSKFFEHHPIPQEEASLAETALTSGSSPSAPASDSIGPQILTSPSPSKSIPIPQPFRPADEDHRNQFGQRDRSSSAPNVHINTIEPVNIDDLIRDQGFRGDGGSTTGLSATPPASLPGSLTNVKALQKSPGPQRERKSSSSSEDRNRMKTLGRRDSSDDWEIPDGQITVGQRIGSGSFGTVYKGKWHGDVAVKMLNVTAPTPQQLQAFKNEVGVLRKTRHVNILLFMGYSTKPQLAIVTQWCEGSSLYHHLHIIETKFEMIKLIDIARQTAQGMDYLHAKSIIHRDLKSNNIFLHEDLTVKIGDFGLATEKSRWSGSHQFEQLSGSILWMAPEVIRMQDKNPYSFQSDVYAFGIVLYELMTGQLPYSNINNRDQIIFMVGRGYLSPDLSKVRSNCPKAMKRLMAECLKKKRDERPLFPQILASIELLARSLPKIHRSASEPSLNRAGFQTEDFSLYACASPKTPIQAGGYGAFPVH
Serine/threonine-protein kinase B-raf (Homo sapiens, UniProt P15056), sequence (P15056 whole entry): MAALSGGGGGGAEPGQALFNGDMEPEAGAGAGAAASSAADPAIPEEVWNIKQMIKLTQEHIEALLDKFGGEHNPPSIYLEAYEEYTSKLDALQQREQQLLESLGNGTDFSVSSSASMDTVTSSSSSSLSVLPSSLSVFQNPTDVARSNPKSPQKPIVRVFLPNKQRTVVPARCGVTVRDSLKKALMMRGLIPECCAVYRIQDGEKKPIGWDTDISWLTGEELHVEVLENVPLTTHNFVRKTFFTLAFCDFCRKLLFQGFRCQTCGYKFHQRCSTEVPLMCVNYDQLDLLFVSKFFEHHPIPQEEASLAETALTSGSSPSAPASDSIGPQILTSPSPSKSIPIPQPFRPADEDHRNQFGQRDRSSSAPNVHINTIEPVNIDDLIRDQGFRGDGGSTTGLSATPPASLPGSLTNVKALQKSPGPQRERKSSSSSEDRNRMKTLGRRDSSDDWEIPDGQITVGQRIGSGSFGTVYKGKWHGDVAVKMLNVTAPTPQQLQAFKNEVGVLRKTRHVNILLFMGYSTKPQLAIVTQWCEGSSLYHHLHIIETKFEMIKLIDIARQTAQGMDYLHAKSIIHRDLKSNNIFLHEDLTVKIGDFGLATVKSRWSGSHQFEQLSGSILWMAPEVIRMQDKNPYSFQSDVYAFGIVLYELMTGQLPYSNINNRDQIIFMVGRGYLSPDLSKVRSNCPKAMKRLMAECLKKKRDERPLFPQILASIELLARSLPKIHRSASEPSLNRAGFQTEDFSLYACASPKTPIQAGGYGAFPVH

IC50 [1]: 160 nM
IC50 [2]: 19 nM
IC50 [3]: 8.2 nM
IC50 [4]: 28 nM
IC50 [5]: 65 nM
IC50 [6]: 40 nM
IC50 [7]: 46 nM
IC50 [8]: 277 nM
SMILES: CNS(=O)(=O)Nc1nccc(Cc2c(C)c3ccc(Oc4ncccn4)cc3oc2=O)c1F [AVUTOMETINIB]
IC50 [9]: 360 nM

SMILES: CCNC(=O)C#Cc1ccc2c(c1)NC(=O)/C2=C(\Nc1ccc(CN(C)C)cc1)c1ccccc1
IC50 [10]: 15 nM
Cmax [11]: 2700 nM
IC50 [12]: 3 nM
Cmax [13]: 380 nM
Cmax [14]: 460 nM
Cmax [15]: 13 nM

SMILES: CCNc1cc(O)c2c(c1)/C=C/C[C@H](O)[C@H](O)C(=O)/C=C\[C@@H](C)[C@H](C)OC2=O [E-6201]
IC50 [16]: 5 nM
IC50 [17]: 2 nM
IC50 [18]: 26 nM
IC50 [19]: 4.6 nM
